Reference: ChEMBL document CHEMBL4507295 (2021)

Assays:
[1] = target: Serine/threonine-protein kinase OSR1 (Homo sapiens) (UniProt O95747); settings: Compound concentration 1000.0 nM
[2] = target: T1, D(4) dopamine receptor (Homo sapiens) (UniProt P21917); settings: Compound concentration 10.0 uM
T1 sequence (whole entry): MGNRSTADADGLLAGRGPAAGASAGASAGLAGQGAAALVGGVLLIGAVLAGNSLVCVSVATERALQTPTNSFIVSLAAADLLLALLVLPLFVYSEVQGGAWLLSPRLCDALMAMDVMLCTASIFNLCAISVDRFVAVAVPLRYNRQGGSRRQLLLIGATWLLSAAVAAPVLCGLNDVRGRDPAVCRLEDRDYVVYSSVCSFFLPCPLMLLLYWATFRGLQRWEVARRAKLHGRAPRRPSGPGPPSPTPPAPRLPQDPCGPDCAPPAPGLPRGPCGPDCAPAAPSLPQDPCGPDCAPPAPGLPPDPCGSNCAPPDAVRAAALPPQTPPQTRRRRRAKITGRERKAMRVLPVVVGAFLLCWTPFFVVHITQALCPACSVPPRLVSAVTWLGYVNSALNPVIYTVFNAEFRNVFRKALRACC

[3] = target: Atypical kinase COQ8B, mitochondrial (Homo sapiens) (UniProt Q96D53); settings: Compound concentration 1000.0 nM
[4] = system: Epidermal growth factor receptor (Homo sapiens), P00533 [G719C]; settings: Compound concentration 1000.0 nM
[5] = target: Sigma intracellular receptor 2 (Homo sapiens) (UniProt Q5BJF2); settings: Compound concentration 10.0 uM
Sequence of Sigma intracellular receptor 2 (Homo sapiens) (Q5BJF2 whole entry): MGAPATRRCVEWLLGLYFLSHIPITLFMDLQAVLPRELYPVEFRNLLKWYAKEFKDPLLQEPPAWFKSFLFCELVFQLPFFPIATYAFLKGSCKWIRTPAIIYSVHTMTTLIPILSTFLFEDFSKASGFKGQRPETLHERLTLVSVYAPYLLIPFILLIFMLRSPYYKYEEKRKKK

[6] = target: Dual specificity protein kinase CLK1 (Homo sapiens) (UniProt P49759); settings: Compound concentration 1000.0 nM
[7] = target: Insulin receptor (Homo sapiens) (UniProt P06213); settings: Compound concentration 1000.0 nM
[8] = target: Rhodopsin kinase GRK1 (Homo sapiens) (UniProt Q15835); settings: Compound concentration 1000.0 nM
Sequence of Rhodopsin kinase GRK1 (Homo sapiens) (Q15835 whole entry): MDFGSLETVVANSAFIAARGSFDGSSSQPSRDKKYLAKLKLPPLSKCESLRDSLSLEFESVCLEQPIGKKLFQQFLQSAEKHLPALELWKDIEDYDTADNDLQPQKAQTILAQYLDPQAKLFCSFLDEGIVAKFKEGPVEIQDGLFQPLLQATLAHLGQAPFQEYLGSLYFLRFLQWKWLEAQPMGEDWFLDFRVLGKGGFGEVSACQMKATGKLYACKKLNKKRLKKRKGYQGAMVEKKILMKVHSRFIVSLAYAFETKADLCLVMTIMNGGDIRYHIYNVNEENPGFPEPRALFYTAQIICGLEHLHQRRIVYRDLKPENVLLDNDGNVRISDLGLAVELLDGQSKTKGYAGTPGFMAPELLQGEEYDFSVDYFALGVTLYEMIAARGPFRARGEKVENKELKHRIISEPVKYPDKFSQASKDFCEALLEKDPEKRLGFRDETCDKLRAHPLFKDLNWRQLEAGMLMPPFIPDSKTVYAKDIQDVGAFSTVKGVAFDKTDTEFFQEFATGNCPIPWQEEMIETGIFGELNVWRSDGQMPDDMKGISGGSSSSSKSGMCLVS

[9] = target: Tyrosine-protein kinase Lck (Homo sapiens) (UniProt P06239); settings: Compound concentration 1000.0 nM
Sequence of Tyrosine-protein kinase Lck (Homo sapiens) (P06239 2-509 limits assumed): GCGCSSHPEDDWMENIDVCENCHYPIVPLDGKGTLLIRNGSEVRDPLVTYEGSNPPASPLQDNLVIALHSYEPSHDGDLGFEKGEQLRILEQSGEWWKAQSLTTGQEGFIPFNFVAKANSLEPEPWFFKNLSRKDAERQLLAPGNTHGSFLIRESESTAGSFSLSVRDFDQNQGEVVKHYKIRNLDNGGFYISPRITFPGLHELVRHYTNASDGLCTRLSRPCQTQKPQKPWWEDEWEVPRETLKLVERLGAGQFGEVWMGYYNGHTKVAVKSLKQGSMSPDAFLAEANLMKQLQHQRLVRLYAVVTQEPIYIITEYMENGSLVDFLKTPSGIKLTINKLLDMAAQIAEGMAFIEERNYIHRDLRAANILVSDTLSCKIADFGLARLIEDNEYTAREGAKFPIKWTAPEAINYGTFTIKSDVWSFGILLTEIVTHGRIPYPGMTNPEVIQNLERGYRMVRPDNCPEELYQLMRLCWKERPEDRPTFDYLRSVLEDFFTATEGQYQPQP

[10] = target: BMP-2-inducible protein kinase (Homo sapiens) (UniProt Q9NSY1); settings: Compound concentration 1000.0 nM
[11] = system: Receptor-type tyrosine-protein kinase FLT3 (Homo sapiens), P36888 [N841I]; settings: Compound concentration 1000.0 nM
[12] = target: Sodium-dependent noradrenaline transporter (Homo sapiens) (UniProt P23975); settings: Compound concentration 10.0 uM
[13] = target: Serine/threonine-protein kinase SIK3 (Homo sapiens) (UniProt Q9Y2K2); settings: Compound concentration 1000.0 nM
[14] = target: Dual specificity protein kinase TTK (Homo sapiens) (UniProt P33981); settings: Compound concentration 1000.0 nM
[15] = target: Serine/threonine-protein kinase LATS1 (Homo sapiens) (UniProt O95835); settings: Compound concentration 1000.0 nM
[16] = target: T2, Muscarinic acetylcholine receptor M4 (Homo sapiens) (UniProt P08173); settings: Compound concentration 10.0 uM
T2 sequence (whole entry): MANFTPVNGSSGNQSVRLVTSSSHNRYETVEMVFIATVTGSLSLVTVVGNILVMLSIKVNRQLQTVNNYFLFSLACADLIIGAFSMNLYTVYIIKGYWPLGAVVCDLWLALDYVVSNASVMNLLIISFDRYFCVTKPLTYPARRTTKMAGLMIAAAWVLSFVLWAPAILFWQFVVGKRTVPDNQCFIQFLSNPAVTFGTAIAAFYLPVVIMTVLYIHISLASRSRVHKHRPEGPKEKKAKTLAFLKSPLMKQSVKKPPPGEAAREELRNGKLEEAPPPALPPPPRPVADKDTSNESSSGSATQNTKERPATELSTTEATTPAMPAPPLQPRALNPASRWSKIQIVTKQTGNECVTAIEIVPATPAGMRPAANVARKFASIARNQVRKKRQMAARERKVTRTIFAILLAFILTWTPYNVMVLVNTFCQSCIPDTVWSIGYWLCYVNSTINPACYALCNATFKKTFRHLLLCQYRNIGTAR

[17] = target: Cyclin-dependent kinase 4 (Homo sapiens) (UniProt P11802); settings: Compound concentration 1000.0 nM
[18] = target: Homeodomain-interacting protein kinase 1 (Homo sapiens) (UniProt Q86Z02); settings: Compound concentration 1000.0 nM
Sequence of Homeodomain-interacting protein kinase 1 (Homo sapiens) (Q86Z02 whole entry, looked up): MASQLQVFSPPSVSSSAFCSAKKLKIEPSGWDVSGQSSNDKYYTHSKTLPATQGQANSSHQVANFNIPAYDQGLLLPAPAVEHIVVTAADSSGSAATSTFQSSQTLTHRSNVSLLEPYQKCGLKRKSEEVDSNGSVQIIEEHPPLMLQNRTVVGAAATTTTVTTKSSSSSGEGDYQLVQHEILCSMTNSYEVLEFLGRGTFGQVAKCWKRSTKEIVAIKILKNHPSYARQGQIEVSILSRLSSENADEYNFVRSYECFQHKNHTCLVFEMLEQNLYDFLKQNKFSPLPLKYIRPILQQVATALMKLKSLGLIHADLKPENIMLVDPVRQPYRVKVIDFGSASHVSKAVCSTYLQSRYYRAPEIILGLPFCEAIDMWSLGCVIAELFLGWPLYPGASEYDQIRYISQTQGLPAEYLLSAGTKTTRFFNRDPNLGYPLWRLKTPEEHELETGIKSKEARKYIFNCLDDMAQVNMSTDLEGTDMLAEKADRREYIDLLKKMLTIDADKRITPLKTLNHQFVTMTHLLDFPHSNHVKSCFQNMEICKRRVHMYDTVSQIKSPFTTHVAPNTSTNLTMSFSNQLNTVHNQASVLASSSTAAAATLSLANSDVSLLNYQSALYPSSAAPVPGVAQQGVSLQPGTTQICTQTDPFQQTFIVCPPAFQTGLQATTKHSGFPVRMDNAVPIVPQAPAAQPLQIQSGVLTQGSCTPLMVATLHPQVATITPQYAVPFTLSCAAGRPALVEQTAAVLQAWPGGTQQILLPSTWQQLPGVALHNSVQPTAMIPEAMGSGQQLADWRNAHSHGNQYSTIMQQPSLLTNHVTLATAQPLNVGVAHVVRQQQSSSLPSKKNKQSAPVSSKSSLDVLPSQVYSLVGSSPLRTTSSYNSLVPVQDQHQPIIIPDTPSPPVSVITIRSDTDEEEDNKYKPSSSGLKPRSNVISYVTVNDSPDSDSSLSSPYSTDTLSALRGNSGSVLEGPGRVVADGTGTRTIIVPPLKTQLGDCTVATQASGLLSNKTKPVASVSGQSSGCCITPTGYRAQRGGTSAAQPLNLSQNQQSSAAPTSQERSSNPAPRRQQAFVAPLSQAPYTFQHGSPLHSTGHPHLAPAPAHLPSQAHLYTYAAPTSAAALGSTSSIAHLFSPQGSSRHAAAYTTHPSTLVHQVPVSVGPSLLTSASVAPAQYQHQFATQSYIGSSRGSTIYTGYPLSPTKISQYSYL

[19] = system: Proto-oncogene tyrosine-protein kinase receptor Ret (Homo sapiens), P07949 [M918T]; settings: Compound concentration 1000.0 nM
[20] = target: Ribosomal protein S6 kinase alpha-5 (Homo sapiens) (UniProt O75582); settings: Compound concentration 1000.0 nM
[21] = target: Casein kinase I isoform gamma-2 (Homo sapiens) (UniProt P78368); settings: Compound concentration 1000.0 nM
[22] = system: Tyrosine-protein kinase ABL1 (Homo sapiens), P00519 [F317I]; settings: Compound concentration 1000.0 nM
Sequence of Tyrosine-protein kinase ABL1 (Homo sapiens), P00519 [F317I] (P00519 whole entry F317I): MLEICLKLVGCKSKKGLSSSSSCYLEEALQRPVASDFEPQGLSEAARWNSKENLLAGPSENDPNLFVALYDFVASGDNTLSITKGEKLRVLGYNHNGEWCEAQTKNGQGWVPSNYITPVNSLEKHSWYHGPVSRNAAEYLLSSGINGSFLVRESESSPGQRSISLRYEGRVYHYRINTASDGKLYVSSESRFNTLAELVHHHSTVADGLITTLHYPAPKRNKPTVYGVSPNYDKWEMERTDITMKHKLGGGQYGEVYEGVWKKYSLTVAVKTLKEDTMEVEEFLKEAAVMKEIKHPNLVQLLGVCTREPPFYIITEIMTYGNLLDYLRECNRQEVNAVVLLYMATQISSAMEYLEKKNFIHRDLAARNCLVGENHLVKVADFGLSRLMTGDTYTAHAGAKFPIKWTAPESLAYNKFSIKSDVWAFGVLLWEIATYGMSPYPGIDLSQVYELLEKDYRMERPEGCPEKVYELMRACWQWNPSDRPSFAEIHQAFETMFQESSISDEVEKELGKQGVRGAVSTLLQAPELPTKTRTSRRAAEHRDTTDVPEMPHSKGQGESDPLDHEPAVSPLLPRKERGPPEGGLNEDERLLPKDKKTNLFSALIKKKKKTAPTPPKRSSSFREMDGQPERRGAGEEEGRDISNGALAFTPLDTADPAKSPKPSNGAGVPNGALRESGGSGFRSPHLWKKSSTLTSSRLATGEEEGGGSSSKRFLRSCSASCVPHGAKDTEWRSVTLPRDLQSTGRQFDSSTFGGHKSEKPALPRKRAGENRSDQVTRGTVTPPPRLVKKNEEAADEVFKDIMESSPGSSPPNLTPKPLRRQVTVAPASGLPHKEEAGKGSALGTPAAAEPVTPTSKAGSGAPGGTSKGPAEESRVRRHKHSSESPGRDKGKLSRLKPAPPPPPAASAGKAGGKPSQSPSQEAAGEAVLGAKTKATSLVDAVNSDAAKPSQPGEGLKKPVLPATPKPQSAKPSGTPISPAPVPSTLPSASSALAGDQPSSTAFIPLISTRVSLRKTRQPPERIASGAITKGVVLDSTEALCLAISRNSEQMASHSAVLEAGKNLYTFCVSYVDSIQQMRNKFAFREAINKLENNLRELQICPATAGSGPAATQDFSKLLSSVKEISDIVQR

[23] = target: Dual specificity tyrosine-phosphorylation-regulated kinase 1A (Homo sapiens) (UniProt Q13627); settings: Compound concentration 1000.0 nM
[24] = target: Tyrosine-protein kinase FRK (Homo sapiens) (UniProt P42685); settings: Compound concentration 1000.0 nM
[25] = target: Mitogen-activated protein kinase kinase kinase 12 (Homo sapiens) (UniProt Q12852); settings: Compound concentration 1000.0 nM
[26] = target: Mitogen-activated protein kinase kinase kinase 15 (Homo sapiens) (UniProt Q6ZN16); settings: Compound concentration 1000.0 nM
[27] = target: NUAK family SNF1-like kinase 1 (Homo sapiens) (UniProt O60285); settings: Compound concentration 1000.0 nM
[28] = target: Serine/threonine-protein kinase D1 (Homo sapiens) (UniProt Q15139); settings: Compound concentration 1000.0 nM
[29] = target: Casein kinase II subunit alpha (Homo sapiens) (UniProt P68400); settings: Compound concentration 1000.0 nM
[30] = target: Serine/threonine-protein kinase 16 (Homo sapiens) (UniProt O75716); settings: Compound concentration 1000.0 nM
Sequence of Serine/threonine-protein kinase 16 (Homo sapiens) (O75716 whole entry): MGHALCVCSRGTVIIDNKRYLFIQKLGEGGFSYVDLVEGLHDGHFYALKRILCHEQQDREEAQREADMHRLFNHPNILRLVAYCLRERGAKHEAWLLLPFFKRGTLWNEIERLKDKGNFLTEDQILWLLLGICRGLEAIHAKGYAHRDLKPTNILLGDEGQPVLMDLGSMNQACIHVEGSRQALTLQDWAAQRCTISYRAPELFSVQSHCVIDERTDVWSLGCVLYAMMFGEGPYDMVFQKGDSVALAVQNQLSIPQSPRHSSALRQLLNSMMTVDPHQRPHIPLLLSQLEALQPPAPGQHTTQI

[31] = target: Cyclin-dependent kinase 2 homolog (Plasmodium falciparum (isolate 3D7)) (UniProt P61075); settings: Compound concentration 1000.0 nM
Sequence of Cyclin-dependent kinase 2 homolog (Plasmodium falciparum (isolate 3D7)) (P61075 whole entry): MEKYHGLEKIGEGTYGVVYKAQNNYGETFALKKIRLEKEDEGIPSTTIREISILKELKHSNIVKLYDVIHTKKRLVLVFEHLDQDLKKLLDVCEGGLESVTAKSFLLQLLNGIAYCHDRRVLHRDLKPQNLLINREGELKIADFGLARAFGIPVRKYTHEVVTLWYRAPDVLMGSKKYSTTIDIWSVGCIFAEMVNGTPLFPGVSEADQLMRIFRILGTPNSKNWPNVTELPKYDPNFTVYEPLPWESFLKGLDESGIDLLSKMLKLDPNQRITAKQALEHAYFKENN

[32] = target: Ephrin type-A receptor 1 (Homo sapiens) (UniProt P21709); settings: Compound concentration 1000.0 nM
[33] = target: Mitogen-activated protein kinase kinase kinase 7 (Homo sapiens) (UniProt O43318); settings: Compound concentration 1000.0 nM
Sequence of Mitogen-activated protein kinase kinase kinase 7 (Homo sapiens) (O43318 whole entry): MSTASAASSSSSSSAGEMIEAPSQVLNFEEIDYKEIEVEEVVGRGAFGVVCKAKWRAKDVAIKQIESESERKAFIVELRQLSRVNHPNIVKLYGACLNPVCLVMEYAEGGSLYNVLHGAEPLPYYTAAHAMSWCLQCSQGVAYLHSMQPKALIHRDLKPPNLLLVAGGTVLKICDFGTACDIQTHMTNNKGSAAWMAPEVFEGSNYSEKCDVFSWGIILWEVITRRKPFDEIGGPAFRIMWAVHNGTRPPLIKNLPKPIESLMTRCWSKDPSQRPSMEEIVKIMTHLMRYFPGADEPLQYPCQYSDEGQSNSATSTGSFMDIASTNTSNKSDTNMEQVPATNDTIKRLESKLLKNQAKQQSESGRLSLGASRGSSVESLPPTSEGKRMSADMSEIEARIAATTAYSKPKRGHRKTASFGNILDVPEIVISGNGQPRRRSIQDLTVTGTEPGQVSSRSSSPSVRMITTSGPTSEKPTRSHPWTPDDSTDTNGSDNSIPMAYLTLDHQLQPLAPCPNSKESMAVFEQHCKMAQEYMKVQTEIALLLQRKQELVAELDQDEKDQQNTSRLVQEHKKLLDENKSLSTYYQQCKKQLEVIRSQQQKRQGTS

N#CC1(c2ccccn2)CCN(Cc2cc(C(=O)N3CCCC3)c(=O)n3ccccc23)CC1
inactive: residual activity [1] 100% | inhibition [2] -8.64% | residual activity [3] 100% | residual activity [4] 80% | inhibition [5] 24.1% | residual activity [6] 85% | residual activity [7] 88% | residual activity [8] 85% | residual activity [9] 100% | residual activity [10] 92% | residual activity [11] 100% | inhibition [12] 40.5% | residual activity [13] 100% | residual activity [14] 98% | residual activity [15] 100% | inhibition [16] -8.87% | residual activity [17] 91% | residual activity [18] 77% | residual activity [19] 88% | residual activity [20] 88% | residual activity [21] 76% | residual activity [22] 75% | residual activity [23] 94% | residual activity [24] 80% | residual activity [25] 100% | residual activity [26] 100% | residual activity [27] 86% | residual activity [28] 95% | residual activity [29] 100% | residual activity [30] 100% | residual activity [31] 100% | residual activity [32] 83% | residual activity [33] 99%

N#CC1(c2ccccn2)CCN(Cc2cc(C(=O)O)c(=O)n3ccccc23)CC1 [MSD-M1PAM]
inactive: residual activity [1] 79% | inhibition [2] -8.33% | residual activity [3] 90% | residual activity [4] 100% | inhibition [5] 5.17% | residual activity [6] 80% | residual activity [7] 74% | residual activity [8] 84% | residual activity [9] 97% | residual activity [10] 95% | residual activity [11] 97% | inhibition [12] 24.7% | residual activity [13] 97% | residual activity [14] 88% | residual activity [15] 100% | inhibition [16] -2.36% | residual activity [17] 94% | residual activity [18] 100% | residual activity [19] 100% | residual activity [20] 100% | residual activity [21] 91% | residual activity [22] 81% | residual activity [23] 97% | residual activity [24] 100% | residual activity [25] 93% | residual activity [26] 100% | residual activity [27] 98% | residual activity [28] 87% | residual activity [29] 86% | residual activity [30] 100% | residual activity [31] 68% | residual activity [32] 100% | residual activity [33] 90%
